Assay results published in US4975538A, “Antibiotic sulfonylaminocarbonyl activated beta-lactams” (The Upjohn Company, priority 1989, dated 1990).
Converted amounts (≈) assume the structure as drawn.

What was measured:
Assay in all cases: Minimum Inhibitory Concentration (MIC), agar dilution in Mueller Hinton Agar
Type in all cases: cell-based
Proteus Vulgaris = conditions: 20 h, culture number 9679
Experimental: (§1) The compounds of this invention and their respective pharmaceutically acceptable salts have antibiotic activity against a variety of gram-negative bacteria including Escherichia coli, Klebsiella pneumoniae, and Pseudomonas aeruginosa. The compounds are useful for treating bacterial infections in animals, including and most preferably humans. Compounds of the invention are tested for in vitro antimicrobial activity using standard testing procedures such as the determination of minimum inhibitory concentration (MIC) by methods described in "Methods for Dilution Antimicrobial Susceptibility Tests for Bacteria That Grow Aerobically" (M7-A) Published December 1985 by the National Committee for Clinical Laboratory Standards, 771 East Lancaster Avenue, Villanova, Pa. 19084. Briefly, MIC values are determined in unsupplemented Mueller Hinton Agar (MHA). The compounds tested are diluted serially into molten MHA at 47° C. The agar is poured into petri dishes and allowed to harden. The various bacteria used for testing are grown overnight on MHA at 35° C. and transferred to Tryptiease Soy Broth (TSB) until a turbidity of 0.5 McFarland standard is obtained. The bacteria are diluted one to twenty in TSB and inoculated on the plates (1 μl using a Steers replicator).

Streptococcus Faecalis = conditions: Enterococcus faecalis, 20 h; culture number 694
Experimental: as §1

Enterobacter Cloacae = conditions: 20 h
Experimental: as §1

Pseudomonas Aeruginosa = conditions: 20 h
Experimental: as §1

Citrobacter Freundli = conditions: 20 h, culture number 3507
Experimental: as §1

Staphylococcus Aureus = conditions: 20 h
Experimental: as §1

Streptococcus Pneumoniae = conditions: 20 h, culture number 41
Experimental: as §1

Escherichia Coli = conditions: 20 h
Experimental: as §1

Klebsiella Pneumoniae = conditions: 20 h, culture number 58
Experimental: as §1

Serratia Marcescens = conditions: 20 h, culture number 6888
Experimental: as §1

[1] = tested on: Staphylococcus epidermidis; conditions: 20 h, culture number 30031
Experimental: as §1

Streptococcus Pyogenes = conditions: 20 h, culture number 152
Experimental: as §1

Klebsiella Oxytoca = conditions: 20 h
Experimental: as §1

Row | MIC (Proteus Vulgaris) | MIC (Streptococcus Faecalis) | MIC (Enterobacter Cloacae; culture number 9381) | MIC (Enterobacter Cloacae; culture number 9382) | MIC (Pseudomonas Aeruginosa; culture number 231) | MIC (Pseudomonas Aeruginosa; culture number 9191) | MIC (Citrobacter Freundli) | MIC (Staphylococcus Aureus; culture number 3665) | MIC (Staphylococcus Aureus; culture number 6685) | MIC (Staphylococcus Aureus; culture number 9218) | MIC (Streptococcus Pneumoniae) | MIC (Escherichia Coli; culture number 9379) | MIC (Escherichia Coli; culture number 9380) | MIC (Escherichia Coli; culture number 9451) | MIC (Klebsiella Pneumoniae) | MIC (Serratia Marcescens) | MIC (Streptococcus Pyogenes) | MIC (Klebsiella Oxytoca; culture number 9383) | MIC (Klebsiella Oxytoca; culture number 9384) | Compound | further results
1 | 0.25 µg/mL (≈ 0.381 µM) | > 64 µg/mL | 64 µg/mL (≈ 97.5 µM) | 1 µg/mL (≈ 1.52 µM) | 64 µg/mL (≈ 97.5 µM) | 64 µg/mL (≈ 97.5 µM) | 0.25 µg/mL (≈ 0.381 µM) | > 64 µg/mL | > 64 µg/mL | > 64 µg/mL | > 64 µg/mL | 0.5 µg/mL (≈ 0.762 µM) | 1 µg/mL (≈ 1.52 µM) | 0.5 µg/mL (≈ 0.762 µM) | 0.5 µg/mL (≈ 0.762 µM) | 2 µg/mL (≈ 3.05 µM) | 64 µg/mL (≈ 97.5 µM) | 2 µg/mL (≈ 3.05 µM) | 0.5 µg/mL (≈ 0.762 µM) | Nc1nc(/C(=N/OCC(=O)O)C(=O)N[C@H]2CN(C(=O)NS(=O)(=O)N3CCN(NC(=O)c4[nH]ccc(=O)c4O)C3=O)C2=O)cs1 [Compound E40, Acetic acid, [[[1-(2-amino-4-thiazolyl)-2-[[1-[[[[3-[[(1,4-dihydro-3-hydroxy-4-oxo-2-pyridinyl)carbonyl]amino]-2-oxo-1-imidazolidinyl]sulfonyl]-amino]carbonyl]-2-oxo-3-azetidinyl]amino]-2-oxoethylidene]amino]oxy]-, [S-(Z)]-] | MIC (Staphylococcus Aureus; culture number 9213): > 64 µg/mL; MIC [1]: > 64 µg/mL
2 | 0.06 µg/mL (≈ 0.0876 µM) | > 64 µg/mL | > 64 µg/mL | 1 µg/mL (≈ 1.46 µM) | 4 µg/mL (≈ 5.84 µM) | 8 µg/mL (≈ 11.7 µM) | 0.5 µg/mL (≈ 0.73 µM) | > 64 µg/mL | > 64 µg/mL | > 64 µg/mL | > 64 µg/mL | 0.25 µg/mL (≈ 0.365 µM) | 0.25 µg/mL (≈ 0.365 µM) | 0.5 µg/mL (≈ 0.73 µM) | 0.5 µg/mL (≈ 0.73 µM) | 0.5 µg/mL (≈ 0.73 µM) | 4 µg/mL (≈ 5.84 µM) | 8 µg/mL (≈ 11.7 µM) | 0.5 µg/mL (≈ 0.73 µM) | CC(C)(O/N=C(\C(=O)N[C@H]1CN(C(=O)NS(=O)(=O)N2CCN(NC(=O)c3cccc(=O)n3O)C2=O)C1=O)c1csc(N)n1)C(=O)O [E42 (c), Propanoic acid, 2-[[[1-(2-amino-4-thiazolyl)-2[[1-[[[[3-[[(1,6-dihydro-1-hydroxy-2-oxo-6-pyridinyl)carbonyl]amino]-2-oxo-1-imidazolidinyl]sulfonyl]amino]carbonyl]-2-oxo-3-azetidinyl]-amino]-2-oxoethylidene]amino]oxy]-2-methyl-, [S-(Z)]-] | 
3 | 0.03 µg/mL (≈ 0.0438 µM) | > 64 µg/mL | 64 µg/mL (≈ 93.5 µM) | 0.5 µg/mL (≈ 0.73 µM) | 1 µg/mL (≈ 1.46 µM) | 1 µg/mL (≈ 1.46 µM) | 0.25 µg/mL (≈ 0.365 µM) | > 64 µg/mL | > 64 µg/mL | > 64 µg/mL | 64 µg/mL (≈ 93.5 µM) | 0.25 µg/mL (≈ 0.365 µM) | 0.25 µg/mL (≈ 0.365 µM) | 0.125 µg/mL (≈ 0.183 µM) | 0.25 µg/mL (≈ 0.365 µM) | 0.5 µg/mL (≈ 0.73 µM) | 4 µg/mL (≈ 5.84 µM) | 4 µg/mL (≈ 5.84 µM) | 0.25 µg/mL (≈ 0.365 µM) | CC(C)(O/N=C(\C(=O)N[C@H]1CN(C(=O)NS(=O)(=O)N2CCN(NC(=O)c3ccn(O)c(=O)c3)C2=O)C1=O)c1csc(N)n1)C(=O)O [E42 (d), Propanoic acid, 2-[[[1-(2-amino-4-thiazolyl)-2-[[1-[[[[3-[[(1,2-dihydro-1-hydroxy-2-oxo-4-pyridinyl)carbonyl]amino]2-oxo-1-imidazolidinyl]sulfonyl]amino]carbonyl]-2-oxo-3-azetidinyl]amino]-2-oxoethylidene]amino]oxy]-2-methyl-, [S-(Z)]-] | 
